A short description of the assay: Inhibition of CDC42.

As to `O=C(Nc1cc2cc[nH]c(=O)c2cc1Cl)[C@@H]1CNC[C@H]1c1ccc(Cl)cc1` [(3S,4R)-N-(7-chloro-1-oxo-1,2-dihydroisoquinolin-6-yl)-4-(4-chlorophenyl)pyrrolidine-3-carboxamide], the half-inhibitory concentration (IC50) is 54 nM.

Broadly, the IC50 is the concentration needed to halve the response being measured. Low values mean greater potency, high ones weaker potency.

The values above are taken from BindingDB's records for doi:10.1016/j.bmcl.2010.04.069 (Boehringer Ingelheim Pharmaceuticals, 2010).
